Test results as given in patent publication US20090018116A1, “Therapeutic Compounds” (ASTRAZENECA AB, priority 2004, published 2009).

What was measured:
Human CB1 receptor [1] = biological target: T1, Human CB1 receptor (Homo sapiens, UniProt P21554); experiment: hCB1 receptor binding (3H-CP55,940 displacement); conditions: hCB1 membranes, Ki=IC50/(1+[rad]/Kd)
T1 construct: purchased Receptor Biology
Method: The total and non-specific binding are determined in the absence and presence of 0.2 μM of HU210 respectively. The plates are vortexed and incubated for 60 minutes at room temperature, filtered through Unifilters GF/B (presoaked in 0.1% polyethyleneimine) with the Tomtec or Packard harvester using 3 mL of wash buffer (50 mM Tris, 5 mM MgCl2, 0.5 mg BSA pH 7.0). The filters are dried for 1 hour at 55° C. The radioactivity (cpm) is counted in a TopCount (Packard) after adding 65 μl/well of MS-20 scintillation liquid.
Based on the above assays, the dissociation constant (Ki) for a particular compound of the invention towards a particular receptor is determined using the following equation:
[rad] is a standard or reference radioactive ligand concentration at that moment; and
Kd is the dissociation constant of the radioactive ligand towards the particular receptor.

Human CB1 receptor [2] = biological target: T1, Human CB1 receptor; experiment: hCB1 GTPγS binding; assay type: biochemical; conditions: hCB1 membranes, GTPg35S binding; for Emax: maximal stimulation with 10 μM Win 55,212-2
Method: Human CB1 receptor from Receptor Biology (hCB1) or human CB2 receptor membranes (BioSignal) are thawed at 37° C., passed 3 times through a 25-gauge blunt-end needle and diluted in the GTPγS binding buffer (50 mM Hepes, 20 mM NaOH, 100 mM NaCl, 1 mM EDTA, 5 mM MgCl2, pH 7.4, 0.1% BSA). […] The basal and maximal stimulated binding is determined in absence and presence of 1 μM (hCB2) or 10 μM (hCB1) Win 55,212-2 respectively. The membranes are pre-incubated for 5 minutes with 56.25 μM (hCB2) or 112.5 μM (hCB1) GDP prior to distribution in plates (15 μM (hCB2) or 30 μM (hCB1) GDP final). The plates are vortexed and incubated for 60 minutes at room temperature, filtered on Unifilters GF/B (presoaked in water) with the Tomtec or Packard harvester using 3 ml of wash buffer (50 mM Tris, 5 mM MgCl2, 50 mM NaCl, pH 7.0). The filters are dried for 1 hour at 55° C. The radioactivity (cpm) is counted in a TopCount (Packard) after adding 65 μl/well of MS-20 scintillation liquid. Antagonist reversal studies are done in the same way except that (a) an agonist dose-response curve is done in the presence of a constant concentration of antagonist, or (b) an antagonist dose-response curve is done in the presence of a constant concentration of agonist.

T1 sequence (P21554 whole entry): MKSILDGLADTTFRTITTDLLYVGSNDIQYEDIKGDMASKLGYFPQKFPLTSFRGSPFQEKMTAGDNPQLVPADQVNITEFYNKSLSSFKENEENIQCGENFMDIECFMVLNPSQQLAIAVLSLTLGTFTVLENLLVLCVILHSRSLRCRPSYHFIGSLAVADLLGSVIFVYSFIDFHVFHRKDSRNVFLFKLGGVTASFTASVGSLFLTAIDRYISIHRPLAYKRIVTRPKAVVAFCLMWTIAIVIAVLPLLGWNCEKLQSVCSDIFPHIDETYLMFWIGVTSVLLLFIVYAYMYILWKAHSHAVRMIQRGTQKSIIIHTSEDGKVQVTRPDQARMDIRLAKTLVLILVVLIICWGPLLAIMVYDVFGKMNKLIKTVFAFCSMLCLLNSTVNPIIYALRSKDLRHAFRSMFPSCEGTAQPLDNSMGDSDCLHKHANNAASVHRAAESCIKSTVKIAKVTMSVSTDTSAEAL

Row | Compound | Ki (Human CB1 receptor [1]) | EC50 (Human CB1 receptor [2]) | Emax (Human CB1 receptor [2])
1 | O=C(NCC1CCC1)c1cc(Cl)ccc1NC(=O)c1cccc2ccccc12 [Example 17, N-[4-Chloro-2-[[(cyclobutylmethyl)amino]carbonyl]phenyl]-1-naphthalenecarboxamide] | 7.3 nM | 41 nM | 95%
2 | O=C(NC1CCOCC1)c1cc(Cl)ccc1NC(=O)c1cccc2ccccc12 [Example 30, N-[4-Chloro-2-[[(tetrahydro-2H-pyran-4-yl)amino]carbonyl]phenyl]-1-naphthalenecarboxamide] | 71 nM | 304 nM | 109%
3 | O=C(NCC1CCCCC1)c1c(O)cccc1NC(=O)c1cccc2ccccc12 [Example 49, N-[2-[[(Cyclohexylmethyl)amino]carbonyl]-3-hydroxyphenyl]-1-naphthalenecarboxamide] |  |  | 109%
